In patent US10717733B2, “Haloallylamine indole and azaindole derivative inhibitors of lysyl oxidases and uses thereof” (PHARMAXIS LTD., priority 2016, dated 2020):
Structures can show the parent of a compound that is named as a salt.

Columns and labels:
Type in all cases: biochemical
[1] = target: Bovine LOX (Bos taurus (Bovine), UniProt P33072); test: LOX inhibition, peroxidase-coupled Amplex Red amine oxidase assay; conditions: 30 min preincubation at 37° C., putrescine substrate
How it was run: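 Bovine LOX in 1.2 M urea, 50 mM sodium borate pH 8.2 with 1 μM mofegiline and 0.5 mM pargyline; putrescine at twice KM (e.g. 20 mM for LOX) with Amplex Red/HRP. Fluorescence (ex 565/em 590 nm) read kinetically over 30 min at 37–45 °C; IC50 from slopes.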

[2] = target: human recombinant SSAO/VAP-1 (Homo sapiens (Human), UniProt Q16853); test: Inhibition of human recombinant SSAO/VAP-1 amine oxidase activity; conditions: 30 min preincubation at 37° C., 600 μM benzylamine
How it was run: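 Purified SSAO/VAP-1 (residues 34-763, expressed in CHO Lec 8 cells; 0.25 μg/mL) preincubated 30 min at 37° C with compound in 0.1 M sodium phosphate pH 7.4. Reaction mix of 600 μM benzylamine, 120 μM Amplex Red and 1.5 U/mL HRP added; fluorescence (ex 565/em 590 nm) read every 2.5 min for 30 min; IC50 from kinetic slopes over 4-11 point curves.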

[3] = target: Recombinant human MAO-B (Homo sapiens (Human), UniProt P27338); test: Inhibition of human recombinant MAO-B; conditions: benzylamine 100 μM
How it was run: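 Recombinant human MAO-B used as enzyme source (0.06 mg/mL, stated concentration). Run as for the human SSAO/VAP-1 assay, except benzylamine substrate at 100 μM.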

Sequence of Recombinant human MAO-B (P27338 whole entry): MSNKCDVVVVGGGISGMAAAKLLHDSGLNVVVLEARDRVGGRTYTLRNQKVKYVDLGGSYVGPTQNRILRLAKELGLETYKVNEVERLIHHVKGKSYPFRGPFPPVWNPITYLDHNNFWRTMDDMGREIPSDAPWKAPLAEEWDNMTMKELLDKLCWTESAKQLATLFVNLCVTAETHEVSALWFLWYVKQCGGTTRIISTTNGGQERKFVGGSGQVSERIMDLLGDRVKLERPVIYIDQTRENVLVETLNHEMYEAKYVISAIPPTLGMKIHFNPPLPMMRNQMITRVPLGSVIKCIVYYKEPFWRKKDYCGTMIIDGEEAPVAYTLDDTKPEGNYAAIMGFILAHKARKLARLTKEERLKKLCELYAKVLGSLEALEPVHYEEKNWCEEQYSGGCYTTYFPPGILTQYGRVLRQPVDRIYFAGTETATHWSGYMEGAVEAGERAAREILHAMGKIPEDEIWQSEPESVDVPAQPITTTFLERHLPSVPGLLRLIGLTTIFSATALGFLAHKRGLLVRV
Sequence of Bovine LOX (P33072 170-418): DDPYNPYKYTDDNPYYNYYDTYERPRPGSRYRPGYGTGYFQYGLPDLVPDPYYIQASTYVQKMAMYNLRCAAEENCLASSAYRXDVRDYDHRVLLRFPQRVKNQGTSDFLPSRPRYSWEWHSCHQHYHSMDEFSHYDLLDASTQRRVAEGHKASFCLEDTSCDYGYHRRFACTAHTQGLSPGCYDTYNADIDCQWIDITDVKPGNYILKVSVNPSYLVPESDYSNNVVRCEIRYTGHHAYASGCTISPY
Sequence of human recombinant SSAO/VAP-1 (Q16853 34-763): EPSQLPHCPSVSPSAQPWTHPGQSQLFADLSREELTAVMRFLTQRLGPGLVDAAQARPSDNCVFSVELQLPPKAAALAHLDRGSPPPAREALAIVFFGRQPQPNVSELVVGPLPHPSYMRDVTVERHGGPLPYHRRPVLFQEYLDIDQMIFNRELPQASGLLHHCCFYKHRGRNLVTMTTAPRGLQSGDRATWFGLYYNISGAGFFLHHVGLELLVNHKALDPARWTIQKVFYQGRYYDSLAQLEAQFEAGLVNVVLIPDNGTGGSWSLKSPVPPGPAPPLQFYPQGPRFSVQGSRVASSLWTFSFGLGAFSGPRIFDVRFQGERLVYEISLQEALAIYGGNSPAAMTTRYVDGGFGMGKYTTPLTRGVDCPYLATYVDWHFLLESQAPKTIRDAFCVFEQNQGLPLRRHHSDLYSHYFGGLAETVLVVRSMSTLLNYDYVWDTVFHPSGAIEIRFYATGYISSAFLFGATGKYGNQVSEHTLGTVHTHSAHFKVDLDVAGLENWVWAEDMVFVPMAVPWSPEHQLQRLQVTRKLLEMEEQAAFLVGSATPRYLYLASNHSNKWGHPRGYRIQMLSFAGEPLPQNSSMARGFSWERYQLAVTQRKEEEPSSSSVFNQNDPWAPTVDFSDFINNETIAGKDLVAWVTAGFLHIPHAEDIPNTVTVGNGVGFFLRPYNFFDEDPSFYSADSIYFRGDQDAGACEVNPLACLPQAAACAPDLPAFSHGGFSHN

SMILES | IC50 [1] | IC50 [2] | IC50 [3]
CCOC(=O)c1ccc2c(c1)c(-c1cccc(S(=O)(=O)N(C)C)c1)c(C)n2C/C(F)=C/CN [Compound 12, (Z)-ethyl 1-(4-amino-2-fluorobut-2-en-1-yl)-3-(3-(N,N-dimethylsulfamoyl)phenyl)-2-methyl-1H-indole-5-carboxylate] | > 0.3 µM | > 3 µM | > 3 µM
Cc1c(-c2cccc(S(=O)(=O)N(C)C)c2)c2ncccc2n1C/C(F)=C/CN [Compound 25, (Z)-3-(1-(4-amino-2-fluorobut-2-en-1-yl)-2-methyl-1H-pyrrolo[3,2-b]pyridin-3-yl)-N,N-dimethylbenzenesulfonamide Dihydrochloride] | > 0.3 µM | > 3 µM | > 3 µM
Cc1ccc2c(n1)c(-c1cccc(S(C)(=O)=O)c1)c(C)n2C/C(F)=C/CN [Compound 112, (Z)-4-(2,5-dimethyl-3-(3-(methylsulfonyl)phenyl)-1H-pyrrolo[3,2-b]pyridin-1-yl)-3-fluorobut-2-en-1-amine Dihydrochloride] | > 0.3 µM | > 3 µM | > 3 µM
